What was measured:
[1] = In vitro inhibition of dog liver squalene epoxidase in HepG2 cells
[2] = In vitro inhibition of pig liver squalene epoxidase in HepG2 cells

## CCN(C/C=C/C#CC(C)(C)C)Cc1cccc(OCCN(C)S(=O)(=O)c2cccs2)c1 [Thiophene-2-sulfonic acid [2-(3-{[((E)-6,6-dimethyl-hept-2-en-4-ynyl)-ethyl-amino]-methyl}-phenoxy)-ethyl]-methyl-amide]
[1]
  IC50: 80 nM
[2]
  IC50: 50 nM

Reference: BindingDB's records for doi:10.1016/s0960-894x(98)00213-3 (Centre De Recherche Pierre Fabre, 1999)
